# In patent US20170029451A1, “BRANCHED CHAIN ACYCLIC NUCLEOSIDE PHOSPHONATE ESTERS AND METHODS OF SYNTHESIS AND USES THEREOF” (CHIMERIX, INC., priority 2013, published 2017):
# Read-outs that look alike come from different tables or passages of the source.
# What was measured:
# Epstein-Barr virus = experiment: DNA Hybridization Assay for EBV in Akata cells; format: cell-based; conditions: human gammaherpesvirus 4, read-out: Efficacy DNA Hybridization Assay (EC50)
# Description: Akata cells latently infected with EBV were obtained from John Sixbey. The GS strain of HHV-6A was obtained through the NIH AIDS Research and Reference Reagent Program.
# Each experiment that evaluated the antiviral activity of the compounds included both positive and negative control compounds to ensure the performance of each assay. Concurrent assessment of cytotoxicity was also performed for each study at equivalent levels of compound exposure. When sufficient material was available, multiple assays were performed for each compound evaluation to obtain statistical data.
# Assays for EBV were performed in Akata cells that were induced to undergo a lytic infection with 50 μg/ml of a goat anti-human IgG antibody by standard methods. Experimental compounds were diluted in round bottom 96-well plates to yield concentrations ranging from 20 to 0.016 μM. Akata cells were added to the plates at a concentration of 4×10^4 cells per well and incubated for 72 h. For HHV-6 assays, compounds were serially diluted in 96-well plates then 1×10^4 uninfected HSB-2 or Molt-3 cells were added to each well. Infection was initiated by adding HHV-6A infected HSB-2 cells, or HHV-6B infected Molt-3 cells, at a ratio of approximately 1 infected cell for every 10 uninfected HSB-2 cells or Molt-3 cells respectively and incubated for 7 d at 37° C. […]
# in vitro [1] = conditions: human
# in vitro [2] = conditions: human; remark: listed apart in the source
# [3] = tested on: Herpes Simplex Virus 1 (Strain E-377); experiment: Plaque reduction assay, HSV-1 in human foreskin fibroblast cells; format: cell-based; conditions: Human alphaherpesvirus 1; Strain E-377, human foreskin fibroblast cells
# [4] = tested on: human foreskin fibroblast cells; experiment: Neutral red cytotoxicity assay in human foreskin fibroblast cells; conditions: read-out: VACV CC50, μm, parallel to VACV assay (second printing of Table 4)
# [5] = tested on: Vaccinia Virus (Strain Copenhagen); experiment: microbe, parasite or virus in culture; format: cell-based; conditions: Orthopoxvirus vaccinia, Fibroblast, read-out: VACV EC50, μM
# [6] = tested on: Cowpox Virus (Strain Brighton); experiment: microbe, parasite or virus in culture; format: cell-based; conditions: Fibroblast, read-out: CPXV EC50, μM
# [7] = tested on: Human Cytomegalovirus (HCMV); experiment: HCMV EC50 in MRC-5 cells (qPCR of intracellular CMV DNA); format: cell-based; conditions: Human betaherpesvirus 5, MRC5
# Description: Costar 96-well tissue culture plates were seeded with 20,000 MRC-5 cells/well in EMEM containing 2% Hyclone Standard Fetal Bovine Serum and 1% Hyclone Penicillin and Streptomycin. Outer wells were not used to minimize the edge-effect produced by extended incubations. Cells were inoculated with HCMV at an MOI of 0.01. Serial dilutions of test compounds were added to the cells and plates were incubated for 7 days at 37° C. in 5% CO2. […] Culture medium was gently removed from infected cells after the 7-day incubation. The cells were rinsed twice with ice-cold PBS, and then freeze/thawed once. Each well was incubated with 200 μL lysis buffer for 2 hours at 55° C. Lysis buffer included 0.5 mg/mL protease K, 50 mM KCl, 10 mM Tris-Cl pH 8.0, 2.5 mM MgCl2, 0.45% IGEPAL, and 0.45% Tween-20 dissolved in DEPC-treated water. Intracellular CMV DNA was measured by quantitative polymerase chain reaction (qPCR) using forward and reverse HCMV PCR primers, and a FAM-labeled probe. Absolute quantitation of viral copy number was performed using a standard curve with dilutions of a HCMV DNA amplicon containing sequences homologous to the amplified fragment. The following qPCR amplification conditions were used: 1 cycle at 95° C. for 10 minutes, followed by 45 cycles of 95° C. for 15 seconds and 60° C. for 60 seconds. The qPCR reactions were performed using an Applied Biosystems 7500 real Time PCR System. Gen 5 software (BioTek Instruments, Inc.) was used to calculate the concentration which inhibited the viral DNA levels of HCMV-infected MRC-5 cells by 50% (EC50).
# [8] = Cytotoxicity (CC50) in MT4 cells; format: cell-based; conditions: human
# Description: Costar 96-well tissue culture plates were seeded with 5,000 MT4 cells (NIH AIDS Reagents Program)/well in RPMI (Lonza, Cat 12-11F) containing 10% Hyclone Standard Fetal Bovine Serum (FBS, Cat 5H30088.03), 1% Hyclone Penicillin and Streptomycin (Cat SV30010), and 2 mM Lonza L-Glutamine (Cat 17-605E). Outer wells were not used to minimize the edge-effect produced by extended incubations. Serial dilutions of test compounds were added to the cells and plates were incubated for 6 days at 37° C. in 5% CO2. After 6 days of incubation 40 μL of Cell Titer 96® Aqueous MTS Reagent (Promega, G111) was added as directed by manufacturer to the 200 μL media in each well and incubated at 37° C. until the untreated-cell controls developed an 490 nm absorbance between 1.1 and 1.8. The final absorbance readings were read using a BioTek Synergy 2, and Gen 5 software (BioTek Instruments, Inc.) was used to calculate the concentration which inhibited MT4 cells by 50% (CC50).
# HCMV (Strain AD169) = experiment: Plaque reduction assay, HCMV AD169 in human foreskin fibroblast cells; format: cell-based, Human Cytomegalovirus (HCMV); conditions: Human betaherpesvirus 5, AD169, Fibroblast
# [9] = tested on: HCMV UL54 resistant mutant GDG^RP53; experiment: microbe, parasite or virus in culture; format: cell-based, Human Cytomegalovirus (HCMV); conditions: Human betaherpesvirus 5, Fibroblast
# BKV (Gardner strain) = experiment: BKV EC50 in Vero cells (qPCR of supernatant BKV DNA); format: cell-based, BK virus (BKV); conditions: Betapolyomavirus hominis; BKV in Vero cells (Table 7); read-out: BKV EC50
# Description: Costar 96-well tissue culture plates were seeded with 10,000 Vero cells/well in DMEM containing 2% Hyclone Standard Fetal Bovine Serum (FBS, Cat 5H30088.03) and 1% Hyclone Penicillin and Streptomycin. Outer wells were not used to minimize the edge-effect produced by extended incubations. Cells were inoculated with 115 BKV DNA copies/cell (ATCC, Gardner strain). Serial dilutions of test compounds were added to the cells and plates were incubated for 10 days at 37° C. in 5% CO2. After the 10-day incubation, 50 μL supernatant was mixed with 50 μL 2× lysis buffer that provided a final concentration 0.5 mg/mL protease K, 50 mM KCl, 10 mM Tris-Cl pH 8.0, 2.5 mM MgCl2, 0.45% IGEPAL, and 0.45% Tween-20 dissolved in DEPC-treated water. Each plate was incubated for 2 hours at 55° C. Supernatant BKV DNA was measured by quantitative polymerase chain reaction (qPCR) using forward and reverse BKV PCR primers, and a FAM-labeled probe. Absolute quantitation of viral copy number was performed using a standard curve with dilutions of a BKV DNA amplicon containing sequences homologous to the amplified fragment. The following qPCR amplification conditions were used: 1 cycle at 95° C. for 10 minutes, followed by 45 cycles of 95° C. for 15 seconds and 60° C. for 60 seconds. The qPCR reactions were performed using an Applied Biosystems 7500 real Time PCR System. Gen 5 software (BioTek Instruments, Inc.) was used to calculate the concentration which inhibited the viral DNA levels of BKV-infected Vero cells by 50% (EC50).
# [10] = tested on: HCMV UL54 resistant mutant 4955^R; experiment: microbe, parasite or virus in culture; format: cell-based, Human Cytomegalovirus (HCMV); conditions: Human betaherpesvirus 5, Fibroblast
# [11] = tested on: HCMV UL54 resistant mutant D542E (HDP-CDV^R); experiment: microbe, parasite or virus in culture; format: cell-based, Human Cytomegalovirus (HCMV); conditions: Human betaherpesvirus 5, Fibroblast
# [12] = tested on: Influenza virus B/FL/4/2006; experiment: microbe, parasite or virus in culture; format: cell-based; conditions: unidentified influenza virus, MDCK, read-out: B/FL/4/2006 (EC50, μM)
# [13] = tested on: Influenza virus A/CA/10/2009; experiment: microbe, parasite or virus in culture; format: cell-based; conditions: unidentified influenza virus, MDCK, read-out: A/CA/10/2009 (EC50, μM)
# in vitro [14] = conditions: dog
# [15] = Mean XC50 (Table 9), read-out: HCMV EC50
# [16] = Mean XC50 (Table 9), read-out: MT4 cytotoxicity CC50
compound,measurement,setting,value
"Nc1nc2c(ncn2COCCO)c(=O)[nH]1 [Acyclovir, reference compound]",EC50,Epstein-Barr virus,7000 nM
same,CC50,in vitro [1],> 100000 nM
same,CC50,in vitro [2],> 100 µM
same,EC50,[3],2200 nM
"Nc1ccn(C[C@@H](CO)OCP(=O)(O)O)c(=O)n1 [Cidofovir, reference compound]",CC50,[4],> 300000 nM
same,EC50,[5],22.4 µM
same,CC50,"in vitro [2]; CPXV CC50, μM, Human Foreskin Fibroblast Cells, parallel to CPXV assay",> 300 µM
same,EC50,[6],30.5 µM
CCCCCCCCCCCCCCCCOCCCOP(=O)(O)CO[C@H](CO)Cn1ccc(=O)[nH]c1=O [Compound 24],EC50,[7]; [15],8 nM
same,CC50 at 6 days,[8]; [16],13500 nM
"Nc1nc(O)c2ncn(COC(CO)CO)c2n1 [Ganciclovir, reference compound]",EC50,"HCMV (Strain AD169); Strain AD169, human foreskin fibroblast cells, read-out: HCMV EC50",1500 nM
same,CC50,in vitro [2],> 100 µM
"CCCCCCCCCCCCCCCCOCCCOP(=O)(O)CO[C@H](CO)Cn1ccc(N)nc1=O [HDP-CDV, Hexadecyloxypropyl-Cidofovir, reference compound]",EC50,"HCMV (Strain AD169); Virus AD169, human foreskin fibroblast cells (Table 3), read-out: EC50",1 nM
same,EC50,"[7]; HCMV in MRC-5 cells (Table 7), read-out: CMV EC50",0.4 nM
same,EC50,[7]; [15],0.3 nM
same,EC50,"[9]; read-out: EC50 μM, Virus GDG^RP53, human foreskin fibroblast cells",0.0053 µM
same,EC90,[9]; read-out: EC90 μM,0.0316 µM
same,EC50,BKV (Gardner strain),18 nM
same,EC50,"[10]; read-out: EC50 μM, Virus 4955^R, human foreskin fibroblast cells",0.0013 µM
same,EC90,[10]; read-out: EC90 μM,0.006 µM
same,CC50 at 6 days,"[8]; MT4 cells (Table 7), read-out: MT4 CC50",60 nM
same,CC50 at 6 days,[8]; [16],60 nM
same,EC50,"[11]; read-out: EC50 μM, Virus D542E (HDP-CDV^R), human foreskin fibroblast cells",0.0295 µM
same,EC90,[11]; read-out: EC90 μM,0.153 µM
"CCOC(=O)C1=C[C@@H](OC(CC)CC)[C@H](NC(C)=O)[C@@H](N)C1 [Oseltamivir, reference compound]",EC50,[12],16.2 µM
same,EC50,[13],0.17 µM
same,CC50,in vitro [14],> 20000 nM
